Strand notation (5' to 3'): a small letter for the sugar, then the base; units joined by * are phosphorothioate-linked, units joined directly phosphodiester-linked; [ ] holds rarer units or linkages, { } end groups; capitals alone tell only the bases. k = constrained ethyl (cEt); [5mC] = 5-methylcytosine; d = 2'-deoxy (DNA)
What follows are substances tested on human SMAD7 mRNA (assay: Antisense inhibition of human SMAD7 mRNA expression in Hep3B cells by 3-10-3 cEt gapmers, 10,000 nM, electroporation (Example 2)). Settings: Hep3B cells, electroporation with 10,000 nM antisense oligonucleotide, approximately 24 hours, RTS5062, percent inhibition of SMAD7 mRNA relative to untreated control cells.
Format: cell-based
Outline: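 Percent inhibition of SMAD7 mRNA, relative to untreated cells, after ~24 h exposure of electroporated Hep3B cells to 10,000 nM cEt gapmer; levels by qRT-PCR, corrected for total RNA.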

| Substance | % Inhibition [%] |
| --- | --- |
| 799296 (antisense kG*k[5mC]*kT*dG*dA*d[5mC]*dT*d[5mC]*dG*d[5mC]*dG*dG*d[5mC]*k[5mC]*kT*kT) [compound 799296] | 45 |
| 799297 (antisense kA*kA*kA*dG*dG*d[5mC]*dT*dG*dA*d[5mC]*dT*d[5mC]*dG*k[5mC]*kG*kG) [compound 799297] | 62 |
| 799298 (antisense k[5mC]*k[5mC]*kA*dA*dA*dA*dG*dG*d[5mC]*dT*dG*dA*d[5mC]*kT*k[5mC]*kG) [compound 799298] | 54 |
| 799309 (antisense kG*k[5mC]*kA*d[5mC]*dG*d[5mC]*dT*d[5mC]*dT*dA*dA*dA*d[5mC]*kA*kG*k[5mC]) [compound 799309] | 42 |
| 799310 (antisense kT*kA*kA*dG*d[5mC]*dA*d[5mC]*dG*d[5mC]*dT*d[5mC]*dT*dA*kA*kA*k[5mC]) [compound 799310] | 18 |
| 799311 (antisense k[5mC]*kT*kT*dT*dA*dA*dG*d[5mC]*dA*d[5mC]*dG*d[5mC]*dT*k[5mC]*kT*kA) [compound 799311] | 27 |
| 799313 (antisense kA*kT*k[5mC]*d[5mC]*dA*dT*d[5mC]*dT*dT*dT*dA*dA*dG*k[5mC]*kA*k[5mC]) [compound 799313] | 0 |
| 799314 (antisense k[5mC]*kA*kA*dG*dA*dT*d[5mC]*d[5mC]*dA*dT*d[5mC]*dT*dT*kT*kA*kA) [compound 799314] | 0 |
| 799315 (antisense k[5mC]*kA*k[5mC]*d[5mC]*dA*dA*dG*dA*dT*d[5mC]*d[5mC]*dA*dT*k[5mC]*kT*kT) [compound 799315] | 15 |
| 799316 (antisense kA*kA*kA*d[5mC]*dA*d[5mC]*d[5mC]*dA*dA*dG*dA*dT*d[5mC]*k[5mC]*kA*kT) [compound 799316] | 0 |
| 799317 (antisense kT*kA*kA*dA*dA*dA*d[5mC]*dA*d[5mC]*d[5mC]*dA*dA*dG*kA*kT*k[5mC]) [compound 799317] | 0 |

Same assay, conditions: Hep3B cells, electroporation with 10,000 nM antisense oligonucleotide, approximately 24 hours, SMAD7 mRNA by RT-PCR (RTS5062), relative to untreated control cells

| Substance | % Inhibition [%] |
| --- | --- |
| 799328 (kA*kT*kG*d[5mC]*dA*d[5mC]*dA*d[5mC]*dT*d[5mC]*dT*d[5mC]*d[5mC]*k[5mC]*kA*kG; antisense) [compound 799328] | 0 |
| 799329 (kG*kT*kA*dT*dG*d[5mC]*dA*d[5mC]*dA*d[5mC]*dT*d[5mC]*dT*k[5mC]*k[5mC]*k[5mC]; antisense) [compound 799329] | 0 |
| 799330 (kG*kG*kT*dA*dT*dG*d[5mC]*dA*d[5mC]*dA*d[5mC]*dT*d[5mC]*kT*k[5mC]*k[5mC]; antisense) [compound 799330] | 45 |
| 799331 (kA*kG*kG*dG*dT*dA*dT*dG*d[5mC]*dA*d[5mC]*dA*d[5mC]*kT*k[5mC]*kT; antisense) [compound 799331] | 1 |
| 799332 (kG*kG*kG*dA*dA*dT*dG*d[5mC]*d[5mC]*d[5mC]*dT*dT*dT*kG*kA*kG; antisense) [compound 799332] | 45 |
| 799333 (kA*kG*kA*dA*dA*dA*d[5mC]*d[5mC]*dT*dG*dG*dA*dA*kG*kG*kG; antisense) [compound 799333] | 24 |
| 799334 (k[5mC]*k[5mC]*kG*dT*dA*dG*dA*d[5mC]*d[5mC]*d[5mC]*d[5mC]*dT*dT*k[5mC]*kG*kG; antisense) [compound 799334] | 21 |
| 799335 (kT*kG*k[5mC]*dA*dG*dG*dA*dG*d[5mC]*dA*dG*dT*dG*k[5mC]*k[5mC]*k[5mC]; antisense) [compound 799335] | 31 |
| 799336 (kA*k[5mC]*kT*dG*d[5mC]*dA*dG*dG*dA*dG*d[5mC]*dA*dG*kT*kG*k[5mC]; antisense) [compound 799336] | 25 |
| 799337 (kG*kT*k[5mC]*dT*dT*dT*d[5mC]*d[5mC]*dG*dG*dG*dT*dG*k[5mC]*kG*kG; antisense) [compound 799337] | 30 |

Same assay, conditions: Hep3B cells, electroporation with 10,000 nM antisense oligonucleotide, approximately 24 hours, primer probe set RTS5062, relative to untreated control cells

| Substance | % inhibition of SMAD7 mRNA expression [%] |
| --- | --- |
| 799323 (antisense k[5mC]*k[5mC]*kA*dG*dG*dA*dG*dG*dG*dT*dA*dT*dG*k[5mC]*kA*k[5mC]) [compound 799323] | 60 |
| 799324 (antisense kT*k[5mC]*k[5mC]*d[5mC]*dA*dG*dG*dA*dG*dG*dG*dT*dA*kT*kG*k[5mC]) [compound 799324] | 6 |
| 799325 (antisense kT*k[5mC]*kT*d[5mC]*d[5mC]*d[5mC]*dA*dG*dG*dA*dG*dG*dG*kT*kA*kT) [compound 799325] | 2 |
| 799326 (kA*k[5mC]*kA*d[5mC]*dT*d[5mC]*dT*d[5mC]*d[5mC]*d[5mC]*dA*dG*dG*kA*kG*kG; antisense) [compound 799326] | 31 |
| 799327 (kG*k[5mC]*kA*d[5mC]*dA*d[5mC]*dT*d[5mC]*dT*d[5mC]*d[5mC]*d[5mC]*dA*kG*kG*kA; antisense) [compound 799327] | 52 |
| 799338 (kT*kT*kA*dT*dA*dG*d[5mC]*dA*d[5mC]*dG*d[5mC]*d[5mC]*dT*k[5mC]*kT*k[5mC]; antisense) [compound 799338] | 0 |
| 799339 (kG*kA*kT*dA*d[5mC]*d[5mC]*d[5mC]*dA*dG*dT*dT*d[5mC]*dG*kG*k[5mC]*k[5mC]; antisense) [compound 799339] | 18 |
| 799340 (kA*kG*kA*dT*dA*d[5mC]*d[5mC]*d[5mC]*dA*dG*dT*dT*d[5mC]*kG*kG*k[5mC]; antisense) [compound 799340] | 0 |
| 799341 (kG*kA*kA*dG*dG*dA*dA*dA*dA*dA*dG*dT*dA*kG*kG*kG; antisense) [compound 799341] | 8 |
| 799342 (k[5mC]*kT*kT*dA*dT*d[5mC]*dT*dG*dT*dG*d[5mC]*dG*dG*kA*kA*kG; antisense) [compound 799342] | 44 |
| 799343 (kA*k[5mC]*kT*dA*dA*dT*d[5mC]*dT*dA*d[5mC]*dA*dG*dA*k[5mC]*kT*kT; antisense) [compound 799343] | 53 |
| 799344 (k[5mC]*k[5mC]*k[5mC]*dA*d[5mC]*dT*dA*dA*dT*d[5mC]*dT*dA*d[5mC]*kA*kG*kA; antisense) [compound 799344] | 34 |
| 799345 (k[5mC]*kG*kA*dG*dA*dA*dG*d[5mC]*d[5mC]*d[5mC]*dA*dG*dG*k[5mC]*k[5mC]*k[5mC]; antisense) [compound 799345] | 20 |
| 799346 (kT*k[5mC]*kT*d[5mC]*dA*dG*d[5mC]*d[5mC]*dG*dA*dG*dA*dA*kG*k[5mC]*k[5mC]; antisense) [compound 799346] | 26 |

Same assay, conditions: Hep3B cells, electroporation, 10,000 nM antisense oligonucleotide, approximately 24 hours, RTS5062, relative to untreated control cells

| Substance | % inhibition of SMAD7 mRNA expression [%] |
| --- | --- |
| 799299 (antisense kA*kT*kT*d[5mC]*d[5mC]*dA*dA*dA*dA*dG*dG*d[5mC]*dT*kG*kA*k[5mC]) [compound 799299] | 42 |
| 799300 (antisense k[5mC]*kA*k[5mC]*dA*dT*dT*d[5mC]*d[5mC]*dA*dA*dA*dA*dG*kG*k[5mC]*kT) [compound 799300] | 28 |
| 799301 (antisense k[5mC]*k[5mC]*kA*d[5mC]*dA*d[5mC]*dA*dT*dT*d[5mC]*d[5mC]*dA*dA*kA*kA*kG) [compound 799301] | 37 |
| 799302 (antisense kA*kA*kA*d[5mC]*d[5mC]*dA*d[5mC]*dA*d[5mC]*dA*dT*dT*d[5mC]*k[5mC]*kA*kA) [compound 799302] | 39 |
| 799303 (antisense kG*kA*k[5mC]*dA*dA*dA*d[5mC]*d[5mC]*dA*d[5mC]*dA*d[5mC]*dA*kT*kT*k[5mC]) [compound 799303] | 73 |
| 799304 (antisense kG*kA*kA*dA*dG*dA*d[5mC]*dA*dA*dA*d[5mC]*d[5mC]*dA*k[5mC]*kA*k[5mC]) [compound 799304] | 54 |
| 799305 (antisense k[5mC]*kA*kT*dG*dA*dA*dA*dG*dA*d[5mC]*dA*dA*dA*k[5mC]*k[5mC]*kA) [compound 799305] | 0 |
| 799306 (antisense kA*kA*kA*d[5mC]*dA*dG*d[5mC]*dA*dT*dG*dA*dA*dA*kG*kA*k[5mC]) [compound 799306] | 27 |
| 799307 (antisense kT*k[5mC]*kT*dA*dA*dA*d[5mC]*dA*dG*d[5mC]*dA*dT*dG*kA*kA*kA) [compound 799307] | 10 |
| 799308 (antisense k[5mC]*kG*k[5mC]*dT*d[5mC]*dT*dA*dA*dA*d[5mC]*dA*dG*d[5mC]*kA*kT*kG) [compound 799308] | 47 |
| 799319 (antisense kT*kG*k[5mC]*dT*dG*dT*dG*dG*dA*dT*dT*dT*dG*kA*kA*kA) [compound 799319] | 0 |
| 799320 (antisense kG*kT*k[5mC]*dT*dG*d[5mC]*dT*dG*dT*dG*dG*dA*dT*kT*kT*kG) [compound 799320] | 0 |

— patent US10517889B2, “Modulators of SMAD7 expression” (Ionis Pharmaceuticals, Inc., priority 2017, dated 2019)
